Measurements: ChEMBL document CHEMBL3244209, “Tripeptide analogues of melanocyte-stimulating hormone release-inhibiting hormone (Pro-Leu-Gly-NH2) as inhibitors of oxotremorine-induced tremor” (1979)
The source made the active and inactive calls. The calls are words filed in the database; no cut-off is given here. Square brackets hold non-standard residues; d marks the D form. Peptide text beside a SMILES is read from it. * marks the point of attachment. pGlu = O=C1CC[C@@H](C(=O)O)N1; NHtBu = CC(C)(C)N*; NHiPr = CC(C)N*; NHPr = CCCN*; For = O=C*

system: Mus musculus; assay: Inhibition of oxotremorine-induced tremor in ip dosed NMRI mouse administered 1 hr prior to oxotremorine challenge; assay type: functional

Compound	Activity [mg/kg]
CC(C)C[C@H](NC(=O)[C@@H]1CCC(=O)N1)C(=O)NCC(=O)N(C)C ([pGlu]-Leu-Gly-NMe2)	1.3
CC(C)C[C@H](NC(=O)[C@@H]1CCC(=O)N1)C(=O)NCC(=O)NC(C)C ([pGlu]-Leu-Gly-NHiPr)	2.9
CC(C)C[C@H](NC(=O)[C@@H]1CCCN1)C(=O)NCC(N)=O (H-Pro-Leu-Gly-NH2)	3.6
CCCNC(=O)CNC(=O)[C@H](CC(C)C)NC(=O)[C@@H]1CCC(=O)N1 ([pGlu]-Leu-Gly-NHPr)	10
CCNC(=O)CNC(=O)[C@H](CC(C)C)NC(=O)[C@@H]1CCC(=O)N1 ([pGlu]-Leu-Gly-NHEt)	7.8

system: Mus musculus; assay: Inhibition of oxotremorine-induced tremor in NMRI mouse at 0.13 to 16 mg/kg, ip administered 1 hr prior to oxotremorine challenge; assay type: functional, organism-based

Compound	inhibition
CC(C)C[C@H](NC(=O)[C@@H]1CCCN1C=O)C(=O)NCC(N)=O (For-Pro-Leu-Gly-NH2)	inactive
CCN(C)C(=O)CNC(=O)[C@H](CC(C)C)NC(=O)[C@@H]1CCC(=O)N1	inactive
C#CCNC(=O)CNC(=O)[C@H](CC(C)C)NC(=O)[C@@H]1CCC(=O)N1	inactive
CC(C)C[C@H](NC(=O)[C@@H]1CCC(=O)N1)C(=O)NCC(=O)NC(C)(C)C ([pGlu]-Leu-Gly-NHtBu)	inactive
CCNC(=O)CNC(=O)[C@H](CC(C)C)NC(=O)C1CCCC1	inactive
CNC(=O)CNC(=O)[C@H](CC(C)C)NC(=O)[C@@H]1CCC(=O)N1 ([pGlu]-Leu-Gly-NHMe)	inactive
CCNC(=O)CNC(=O)[C@H](CC(C)C)NC(=O)[C@@H]1CCCN1C=O (For-Pro-Leu-Gly-NHEt)	inactive
N=C(N)NCCC[C@H](NC(=O)[C@@H]1CCCN1)C(=O)NCC(N)=O (H-Pro-Arg-Gly-NH2)	inactive
NCCCC[C@H](NC(=O)[C@@H]1CCCN1)C(=O)NCC(N)=O (H-Pro-Lys-Gly-NH2)	inactive
CC(C)C[C@@H]1NC(=O)[C@@H]2CCCN2C1=O	inactive
CC(C)C[C@H](NC(=O)C1CCCC1)C(=O)NCC(N)=O	inactive
